Test results as given in article PMC5630390, “7-ketocholesterol and 27-hydroxycholesterol decreased doxorubicin sensitivity in breast cancer cells: estrogenic activity and mTOR pathway” (Oncotarget, 2017).

Target: T1, ERα (Homo sapiens, UniProt P03372)
T1 construct: gene ESR1; recombinant human ERα expressed in yeast with a LacZ reporter construct
T1 sequence (P03372 1-595): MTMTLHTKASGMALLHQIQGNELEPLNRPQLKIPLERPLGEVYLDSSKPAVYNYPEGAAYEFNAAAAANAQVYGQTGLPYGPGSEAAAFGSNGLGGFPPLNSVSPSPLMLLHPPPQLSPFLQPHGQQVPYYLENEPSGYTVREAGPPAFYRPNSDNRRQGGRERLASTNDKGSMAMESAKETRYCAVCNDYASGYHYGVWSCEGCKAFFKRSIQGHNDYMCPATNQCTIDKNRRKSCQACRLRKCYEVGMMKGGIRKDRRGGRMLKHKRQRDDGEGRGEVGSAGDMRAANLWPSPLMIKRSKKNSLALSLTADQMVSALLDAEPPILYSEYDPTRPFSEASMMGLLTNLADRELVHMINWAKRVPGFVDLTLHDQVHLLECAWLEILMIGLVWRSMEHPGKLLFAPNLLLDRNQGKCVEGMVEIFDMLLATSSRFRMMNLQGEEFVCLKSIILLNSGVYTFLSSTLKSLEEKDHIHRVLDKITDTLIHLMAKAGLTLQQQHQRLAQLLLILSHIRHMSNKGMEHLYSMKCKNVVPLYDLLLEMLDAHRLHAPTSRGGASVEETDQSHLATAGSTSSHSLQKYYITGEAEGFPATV
Test: yeast ER reporter (YES) assay, agonist mode, […] h; weak, […] stimulation at […]
Type: cell-based

CC(C)CCC[C@@H](C)[C@H]1CC[C@H]2[C@@H]3C(=O)C=C4C[C@@H](O)CC[C@]4(C)[C@H]3CC[C@]12C [7-KC, 7-ketocholesterol]
activation at 50 µM: 14%
